Target: menin protein (Homo sapiens (Human), UniProt O00255)
Experiment: biochemical
Assay type: binding
Details: FP competitive binding; menin protein 4 nM, FAM-MM2 probe 2 nM; read-out: Menin Binding Affinity IC50
In short: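 Test compounds displaced FAM-MM2 (2 nM) from 4 nM menin after 30 min equilibration at room temperature in PBS buffer containing bovine γ-globulin, 4% DMSO and Triton X-100. Binding was followed by fluorescence polarization. Competition curves were fitted by nonlinear regression to give IC50 and Ki.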

Chain of menin protein (O00255 whole entry): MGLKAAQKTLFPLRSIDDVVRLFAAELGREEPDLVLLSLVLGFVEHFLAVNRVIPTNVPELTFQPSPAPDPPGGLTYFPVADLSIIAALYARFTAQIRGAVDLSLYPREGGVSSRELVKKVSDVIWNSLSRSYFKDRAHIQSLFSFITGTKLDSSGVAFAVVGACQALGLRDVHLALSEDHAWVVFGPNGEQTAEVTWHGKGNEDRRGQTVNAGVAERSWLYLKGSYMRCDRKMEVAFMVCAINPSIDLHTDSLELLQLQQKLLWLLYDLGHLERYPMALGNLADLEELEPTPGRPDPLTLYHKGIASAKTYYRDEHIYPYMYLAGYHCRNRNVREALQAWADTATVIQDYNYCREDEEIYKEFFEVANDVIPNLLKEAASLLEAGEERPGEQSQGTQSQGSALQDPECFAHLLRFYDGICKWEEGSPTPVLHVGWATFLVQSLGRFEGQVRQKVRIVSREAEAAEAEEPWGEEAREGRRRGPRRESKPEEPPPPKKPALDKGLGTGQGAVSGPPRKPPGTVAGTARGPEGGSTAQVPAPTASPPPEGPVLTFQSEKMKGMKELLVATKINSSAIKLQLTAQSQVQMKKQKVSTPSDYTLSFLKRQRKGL

| Structure (SMILES) | IC50 [µM] |
| --- | --- |
| CCNC(=O)O[C@H]1CCC[C@@H]1C(C#N)(c1ccccc1)C1CCN(CC2CN(c3ccc(S(=O)(=O)c4ccncc4)cc3)C2)CC1 (mixture of isomers) [compound 213, rac-(1S,2R)-2-(cyano(phenyl)(1-((1-(4-(pyridin-4-ylsulfonyl)phenyl)azetidin-3-yl)methyl)piperidin-4-yl)methyl)cyclopentyl ethylcarbamate] | 0.17 |
| N#Cc1ccc(N2CC(CN3CCC(C4(C5CCCC5)NCCc5ccccc54)CC3)C2)cc1 (stereo not drawn) [Cpd. No. 129, 4-(3-((4-(1-cyclopentyl-1,2,3,4-tetrahydroisoquinolin-1-yl)piperidin-1-yl)methyl)azetidin-1-yl)benzonitrile] | 0.036 |
| O=C(Cc1ccc(S(=O)(=O)C2CC2)cc1)N1CCc2cc(C3(C4CCCC4)NCCc4ccccc43)ccc2C1 (stereo not drawn) [compound 100, 1-(1-cyclopentyl-1,2,3,3′,4,4′-hexahydro-[1,6′-biisoquinolin]-2′-(1′H)-yl)-2-(4-(cyclopropylsulfonyl)phenyl) ethan-1-one] | 4.7 |
| CN1CCc2ccccc2C1(C1CCCC1)C1CCN(CCCOc2ccc(C#N)cc2)CC1 (stereo not drawn) [compound 28, 4-(3-(4-(1-cyclopentyl-2-methyl-1,2,3,4-tetrahydroisoquinolin-1-yl)piperidin-1-yl)propoxy)benzonitrile] | 0.379 |
| N#CC(c1ccccc1)(C1CCN(CC2CN(c3ccc(S(=O)(=O)c4ccncc4)cc3)C2)CC1)[C@@H]1CCC[C@H]1CO (mixture of isomers) [compound 257, rac-2-((1R,2R)-2-(hydroxymethyl)cyclopentyl)-2-phenyl-2-(1-((1-(4-(pyridin-4-ylsulfonyl)phenyl)azetidin-3-yl)methyl)piperidin-4-yl)acetonitrile] | 4.6 |
| COC(=O)N1Cc2ccccc2C(C2CCN(CCCOc3ccc(C#N)cc3)CC2)([C@@H]2CCC[C@H]2OC)C1 (mixture of isomers) [compound 323, methyl rac-4-(1-(3-(4-cyanophenoxy)propyl)piperidin-4-yl)-4-((1S,2R)-2-methoxycyclopentyl)-3,4-dihydroisoquinoline-2(1H)-carboxylate] | 10.4 |
| CCC(CC)C(=O)N1CCCCC1C1(C2CCN(CCCOc3ccc(C#N)cc3)CC2)CN(C)Cc2ccccc21 (stereo not drawn) [compound 301, 4-(3-(4-(4-(1-(2-ethylbutanoyl)piperidin-2-yl)-2-methyl-1,2,3,4-tetrahydroisoquinolin-4-yl)piperidin-1-yl)propoxy)benzonitrile] | 34.8 |
| N#CC(c1ccccc1)(C1CCN(CC2CN(c3ccc(S(=O)(=O)c4ccncc4)cc3)C2)CC1)[C@H]1CCC[C@@H]1CO (mixture of isomers) [compound 258, rac-2-((1S,2S)-2-(hydroxymethyl)cyclopentyl)-2-phenyl-2-(1-((1-(4-(pyridin-4-ylsulfonyl)phenyl)azetidin-3-yl)methyl)piperidin-4-yl)acetonitrile] | 0.563 |
| CS(=O)(=O)c1ccc(OCCCN2CCC(C3(C4CCCCC4)NCCc4ccccc43)CC2)cc1 (stereo not drawn) [compound 295, 1-cyclohexyl-1-(1-(3-(4-(methylsulfonyl)phenoxy)propyl)piperidin-4-yl)-1,2,3,4-tetrahydroisoquinoline] | 1.9 |
| N#Cc1ccc(OCCCN2CCC(C3(C4CCCC4)NCCc4c(F)cccc43)CC2)cc1 (stereo not drawn) [compound 29, 4-(3-(4-(1-cyclopentyl-5-fluoro-1,2,3,4-tetrahydroisoquinolin-1-yl)piperidin-1-yl)propoxy)benzonitrile] | 0.091 |
| CC(C)C(=O)N1CCCCC1C1(C2CCN(CCCOc3ccc(C#N)cc3)CC2)CN(C)Cc2ccccc21 (stereo not drawn) [compound 300, 4-(3-(4-(4-(1-isobutyrylpiperidin-2-yl)-2-methyl-1,2,3,4-tetrahydroisoquinolin-4-yl)piperidin-1-yl)propoxy)benzonitrile] | 56.5 |
| C=CCC1(C2CCN(CCCOc3ccc(C#N)cc3)CC2)NCCc2ccccc21 (stereo not drawn) [compound 293, 4-(3-(4-(1-allyl-1,2,3,4-tetrahydroisoquinolin-1-yl)piperidin-1-yl)propoxy)benzonitrile] | 2.8 |
| CS(=O)(=O)C[C@@H]1CCC[C@H]1C(C#N)(c1ccccc1)C1CCN(CC2CN(c3ccc(S(=O)(=O)c4ccncc4)cc3)C2)CC1 (mixture of isomers) [compound 256, rac-2-((1R,2R)-2-((methylsulfonyl)methyl)cyclopentyl)-2-phenyl-2-(1-((1-(4-(pyridin-4-ylsulfonyl)phenyl)azetidin-3-yl)methyl)piperidin-4-yl)acetonitrile] | 3.3 |
| CCC1CCCC1C(C#N)(c1ccccc1)C1CCN(CC2CN(c3ccc(S(=O)(=O)c4ccncc4)cc3)C2)CC1 (stereo not drawn) [compound 338, 2-(2-ethylcyclopentyl)-2-phenyl-2-(1-((1-(4-(pyridin-4-ylsulfonyl)phenyl)azetidin-3-yl)methyl)piperidin-4-yl)acetonitrile] | 10.2 |
| CNC(=O)[C@H]1CCC[C@@H]1C(C#N)(c1ccccc1)C1CCN(CC2CN(c3ccc(S(=O)(=O)C4CC4)cc3)C2)CC1 (mixture of isomers) [compound 334, rac-(1S,2S)-2-(cyano(1-((1-(4-(cyclopropylsulfonyl)phenyl)azetidin-3-yl)methyl)piperidin-4-yl)(phenyl)methyl)-N-methylcyclopentane-1-carboxylate] | 3.2 |
| CC(=O)O[C@@H]1CCC[C@H]1C1(C2CCN(CCCOc3ccc(C#N)cc3)CC2)CN(C)Cc2ccc(F)cc21 (mixture of isomers) [compound 315, rac-(1R,2S)-2-(4-(1-(3-(4-cyanophenoxy)propyl)piperidin-4-yl)-6-fluoro-2-methyl-1,2,3,4-tetrahydroisoquinolin-4-yl)cyclopentyl acetate] | 0.131 |
| CN1Cc2ccccc2C(C2CCCC2)(C2CCN(CCCOc3ccc(S(C)(=O)=O)cc3)CC2)C1 (stereo not drawn) [compound 68, 4-cyclopentyl-2-methyl-4-(1-(3-(4-(methylsulfonyl)phenoxy)propyl)piperidin-4-yl)-1,2,3,4-tetrahydroisoquinoline] | 0.181 |
| N#Cc1ccc(-c2ccc(N3CCC(C4(C5CCCC5)NCCc5ccccc54)CC3)cc2)cc1 (stereo not drawn) [compound 77, 4′-(4-(1-cyclopentyl-1,2,3,4-tetrahydroisoquinolin-1-yl)piperidin-1-yl)-[1,1′-biphenyl]-4-carbonitrile] | 2580 |
| CS(=O)(=O)CO[C@@H]1CCC[C@H]1C(C#N)(c1ccccc1)C1CCN(CC2CN(c3ccc(S(=O)(=O)c4ccncc4)cc3)C2)CC1 (mixture of isomers) [compound 254, rac-2-((1S,2R)-2-((methylsulfonyl)methoxy)cyclopentyl)-2-phenyl-2-(1-((1-(4-(pyridin-4-ylsulfonyl)phenyl)azetidin-3-yl)methyl)piperidin-4-yl)acetonitrile] | 23.2 |
| c1ccc(CN2CCC(CC3(C4CCCC4)NCCc4ccccc43)CC2)cc1 (stereo not drawn) [compound 106, 1-((1-benzylpiperidin-4-yl)methyl)-1-cyclopentyl-1,2,3,4-tetrahydroisoquinoline] | 84.1 |
| CO[C@@H]1CCC[C@H]1C1(C2CCN(CCCOc3ccc(C(=O)O)cc3)CC2)CNCc2ccccc21 (mixture of isomers) [compound 327, rac-4-(3-(4-(4-((1S,2R)-2-methoxycyclopentyl)-1,2,3,4-tetrahydroisoquinolin-4-yl)piperidin-1-yl)propoxy)benzoic acid] | 485 |
